Measured values as given in patent publication US20090196910A1, “Sustained-Release Preparation of Statin Drugs” (PFICKER PHARMACEUTICALS LTD., priority 2005, published 2009).

Assays:
[1] = test system: carboxylate hydrolases in human blood; assay: Hydrolysis of 4-esters of statin drugs by ester hydrolases in vitro; type: in vitro ADME; details: pH 6.5-7.5
From the text: As shown in the in vitro experiments, the esters of statin drugs formed at the 4-hydroxyl group can be transformed into statin drugs by many dominant human ester hydrolases at a pH of 6.5-7.5.

[2] = oral administration; cited from earlier work

Row | SMILES | transformation into the statin drug by ester hydrolases [1] | bio-availability [2]
1 | CCC(C)(C)C(=O)O[C@H]1C[C@@H](C)C=C2C=C[C@H](C)C(CC[C@@H]3C[C@@H](OC(C)=O)CC(=O)O3)C21 (some centres unmarked) [4-acetate of simvastatin] | readily transformed into simvastatin | –
2 | CC(C)c1c(C(=O)Nc2ccccc2)c(-c2ccccc2)c(-c2ccc(F)cc2)n1CC[C@@H](O)C[C@@H](O)CC(=O)O [atovastatin] | – | no more than 14%
